{"source": "patent US9987287B2", "about": "“Orally disintegrating solid dosage unit containing an estetrol component” (Donesta Bioscience B.V., priority 2013, dated 2018)", "key": {"[1]": {"experiment": "Dissolution into saliva, anhydrous vs monohydrate", "assay_type": "physicochemical", "details": "compared with estetrol monohydrate"}, "[2]": {"tested_on": "DMBA mammary tumour model", "details": "extent and dose level similar to tamoxifen and to ovariectomy; cited from earlier work"}, "[3]": {"details": "humans; cited from earlier work"}, "[4]": {"target": "T1, sex hormone binding globulin (SHBG) (Homo sapiens, UniProt P04278)", "T1 sequence (P04278 30-402)": "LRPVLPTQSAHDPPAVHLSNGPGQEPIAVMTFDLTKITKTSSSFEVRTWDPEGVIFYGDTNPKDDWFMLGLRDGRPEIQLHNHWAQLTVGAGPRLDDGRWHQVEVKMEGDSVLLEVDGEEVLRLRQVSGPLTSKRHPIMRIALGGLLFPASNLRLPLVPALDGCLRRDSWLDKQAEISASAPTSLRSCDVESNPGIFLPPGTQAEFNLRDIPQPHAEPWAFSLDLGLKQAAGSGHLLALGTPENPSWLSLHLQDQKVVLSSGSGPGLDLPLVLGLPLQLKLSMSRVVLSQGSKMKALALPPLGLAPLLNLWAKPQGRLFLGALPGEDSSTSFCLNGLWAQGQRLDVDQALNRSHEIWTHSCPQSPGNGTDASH", "details": "cited from earlier work"}, "[5]": {"experiment": "Randomized, open-label, single dose, two-period, cross-over pharmacokinetic study, sublingual vs oral estetrol", "assay_type": "in vivo, healthy female postmenopausal volunteers", "details": "10 mg single dose", "experimental": "A randomized, open-label, single dose, two-period, cross-over, pharmacokinetic study is conducted to compare sublingual bioavailability of 10 mg estetrol administered in two 100 mg tablets (each containing 5 mg estetrol and having the same composition as the tablets described in Example 7) with oral availability of estetrol contained in a 83 mg tablet containing 10 mg estetrol. These tablets are administered sublingually and orally to healthy female postmenopausal volunteers under fasting conditions.\nTwelve healthy postmenopausal female subjects are selected on the basis of the following criteria: Caucasian race, age of 45-65 years (inclusive), nonsmokers or past smokers (at least 6 months before dosing), body-mass index (BMI)=18.5 to 30 kg/m^2 (inclusive at the time of the screening).\nAt the start of the first and the second period of the study, between 07:00 am and 07:28 am, 6 subjects receive a single dose of the sublingual formulation of estetrol by administering two estetrol tablets (tablet weight 100 mg; 5 mg estetrol each) and 6 subjects receive a single oral dose of the oral estetrol formulation by administering one estetrol tablet (tablet weight 83 mg; 10 mg estetrol), ingested together with 200 ml water.\nSubjects are required to fast for at least 10 hours prior to tablet administration and for at least 4 hours after administration. Drinking of water or beverages is not permitted within 1 hour before the drug administration. Subjects receive 200 ml of water 1 hour prior to and 2 hours after tablet administration. Subjects are free to drink water and fruit tea from 4 hours following the tablet administration. Standardized meals are provided 10.5 hours before and 4, 6, 9, and 13 hours after tablet administration.\nThe estetrol concentration in the collected blood samples is determined by means of HPLC/MS/MS. The concentrations of glucuronided estetrol (D-ring) in the urine samples is also determined with the help of HPLC/MS/MS."}, "production of SHBG": {"tested_on": "production of SHBG", "details": "in vitro; cited from earlier work"}, "[6]": {"details": "dose-dependent; cited from earlier work"}, "estrogen receptors": {"tested_on": "estrogen receptors", "details": "in vitro; cited from earlier work"}, "[7]": {"tested_on": "human breast cancer cells", "details": "in the presence of 17β-estradiol, in vitro; cited from earlier work"}}, "data": [{"compound": "C[C@]12CC[C@@H]3c4ccc(O)cc4CC[C@H]3[C@@H]1[C@@H](O)[C@@H](O)[C@@H]2O", "note": "[Anhydrous estetrol, estetrol]", "values": [{"measurement": "Rate of dissolution into saliva", "setting": "[1]", "value": "dissolves more rapidly into saliva than estetrol monohydrate"}, {"measurement": "Hygroscopicity", "value": "highly hygroscopic"}]}, {"compound": "C[C@]12CC[C@@H]3c4ccc(O)cc4CC[C@H]3[C@@H]1[C@@H](O)[C@@H](O)[C@@H]2O", "note": "[estetrol, 1,3,5 (10)-estratrien-3,15α,16α,17β-tetrol]", "values": [{"measurement": "Tumour development in DMBA mammary tumour model", "setting": "[2]", "value": "prevented tumour development"}, {"measurement": "Oral bioavailability", "setting": "[3]", "value": "high and dose-proportional"}, {"measurement": "Terminal elimination half-life", "setting": "[3]", "value": "about 28 hours"}, {"measurement": "Binding to SHBG", "setting": "[4]", "value": "does not bind"}, {"measurement": "Bioavailability of sublingually administered estetrol versus orally administered estetrol", "setting": "[5]; fasting, sublingual two 100 mg tablets (5 mg each, composition of Example 7) vs oral 83 mg tablet", "value": "comparable or even superior to orally administered estetrol"}, {"measurement": "Onset of bioavailability, sublingual versus oral", "setting": "[5]; fasting, sublingual two 100 mg tablets vs oral 83 mg tablet", "value": "earlier bioavailability compared to orally administered estetrol"}, {"measurement": "Impact on a liver function parameter, sublingual", "setting": "[5]; sublingual tablets vs oral tablet", "value": "less impact on a liver function parameter"}, {"measurement": "Stimulation of SHBG production", "setting": "production of SHBG", "value": "does not stimulate the production of SHBG"}, {"measurement": "Estrogenic effects in rat models", "setting": "[6]", "value": "exhibited estrogenic effects on the vagina, the uterus (both myometrium and endometrium), body weight, bone mass, bone strength, hot flushes and on ovulation (inhibition)"}, {"measurement": "Binding selectivity to estrogen receptors", "setting": "estrogen receptors", "value": "binds highly selective to the estrogen receptors with preference for the ERα form of the receptor"}, {"measurement": "Effect in human breast cancer cells", "setting": "[7]", "value": "anti-estrogenic effect"}]}]}
